The supplement of paper PMC10307832

What was measured:
Test in all cases: relative viability (nuclei count vs DMSO), 5 days (fraction); higher = more cells survive
[1] = compound: CC(C)(C)c1cc(NC(=O)Nc2ccc(-c3cn4c(n3)sc3cc(OCCN5CCOCC5)ccc34)cc2)no1 [Quizartinib] + Cc1cc(Nc2cc(N3CCN(C)CC3)nc(Sc3ccc(NC(=O)C4CC4)cc3)n2)n[nH]1 [Tozasertib] (partner 0.1 µM)
In short: (§1)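 For relative viability, nuclei counts in treated wells were divided by those in vehicle wells. Lung cancer cell lines had been pin-tool dosed in 1536-well plates the day after seeding and cultured for 5 days, then fixed and stained in one step (final 0.05% Triton X-100, 1% formaldehyde, 1 ug/ml Hoechst) and imaged at 4×. Doses were one drug alone or a fixed anchor-drug dose plus five library-drug doses (not always all listed) in √10 steps, and values are duplicate-plate medians.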

[2] = compound: CC(C)(C)c1cc(NC(=O)Nc2ccc(-c3cn4c(n3)sc3cc(OCCN5CCOCC5)ccc34)cc2)no1 [Quizartinib] + NC(=O)Nc1cc(-c2cccc(F)c2)sc1C(=O)N[C@H]1CCCNC1 [AZD7762] (partner 0.2 µM)
In short: as §1

[3] = compound: CC(C)(C)c1cc(NC(=O)Nc2ccc(-c3cn4c(n3)sc3cc(OCCN5CCOCC5)ccc34)cc2)no1 [Quizartinib] + Nc1nc2[nH]cc(CCc3ccc(C(=O)N[C@@H](CCC(=O)O)C(=O)O)cc3)c2c(=O)[nH]1 [Pemetrexed] (partner 0.2 µM)
In short: as §1

[4] = compound: COCC[n+]1c2c(n(Cc3cnccn3)c1C)C(=O)c1ccccc1C2=O [YM155] + N=C(N)NC(=N)NCCc1ccccc1 [Phenformin] (partner 250 µM)
In short: as §1

Row | Cell Line | relative viability ([1]; first compound 0.001 µM) | relative viability ([1]; first compound 0.003162 µM) | relative viability ([1]; first compound 0.01 µM) | relative viability ([1]; first compound 0.03162 µM) | relative viability ([1]; first compound 0.1 µM) | relative viability ([2]; first compound 0.001 µM) | relative viability ([2]; first compound 0.003162 µM) | relative viability ([2]; first compound 0.01 µM) | relative viability ([2]; first compound 0.03162 µM) | relative viability ([2]; first compound 0.1 µM) | relative viability ([3]; first compound 0.001 µM) | relative viability ([3]; first compound 0.003162 µM) | relative viability ([3]; first compound 0.01 µM) | relative viability ([3]; first compound 0.03162 µM) | relative viability ([3]; first compound 0.1 µM) | relative viability ([4]; first compound 0.002 µM) | relative viability ([4]; first compound 0.006325 µM) | relative viability ([4]; first compound 0.02 µM) | relative viability ([4]; first compound 0.06325 µM)
1 | HOP-62 | 0.358 | 0.363 | 0.416 | 0.352 | 0.33 | 0.639 | 0.529 | 0.554 | 0.688 | 0.463 | 0.3 | 0.248 | 0.315 | 0.325 | 0.323 | 0.566 | 0.648 | 0.658 | 0.6
2 | NCI-H1944 | 0.291 | 0.264 | 0.267 | 0.263 | 0.278 | 0.493 | 0.414 | 0.48 | 0.57 | 0.527 | 0.55 | 0.575 | 0.601 | 0.654 | 0.583 | 0.208 | 0.17 | 0.202 | 0.205
3 | HCC-44 | – | 0.867 | 0.849 | 0.645 | 0.689 | 0.976 | 1.04 | 0.988 | 1.02 | 1.02 | 0.572 | 0.665 | 0.655 | 0.65 | 0.606 | 0.132 | 0.283 | 0.248 | 0.202
4 | NCI-H460 | 0.4 | 0.401 | 0.394 | 0.142 | 0.0635 | – | 0.591 | 0.648 | 0.544 | 0.621 | – | 0.058 | 0.0614 | – | 0.073 | 0.518 | 0.531 | 0.546 | 0.477
5 | NCI-H522 | 0.571 | 0.585 | 0.585 | 0.559 | 0.569 | 0.849 | 0.775 | 0.675 | 0.871 | 0.778 | 0.948 | 0.984 | 0.934 | 0.948 | 1.01 | 0.67 | 0.604 | 0.628 | 0.659
6 | NCI-H1993 | 0.589 | 0.645 | 0.594 | 0.622 | 0.582 | 0.759 | 0.699 | 0.87 | 0.672 | 0.914 | 0.55 | 0.566 | 0.567 | 0.67 | 0.59 | 0.463 | 0.547 | 0.488 | 0.512
7 | LOU-NH91 | 0.472 | 0.693 | 0.462 | 0.649 | 0.668 | 0.749 | 0.768 | 0.739 | 0.722 | 0.827 | 0.394 | 0.397 | 0.386 | 0.377 | 0.436 | 0.647 | 0.783 | 0.785 | 0.783
8 | LCLC-103H | 0.391 | 0.47 | 0.441 | 0.491 | 0.522 | 0.664 | 0.701 | 0.746 | 0.866 | 0.829 | 0.419 | 0.485 | 0.484 | 0.464 | 0.493 | 0.359 | 0.314 | 0.347 | 0.323
9 | 201T | 0.878 | 0.858 | 0.995 | 0.887 | 0.854 | 0.611 | 0.573 | 0.653 | 0.61 | 0.646 | 0.272 | 0.311 | 0.306 | 0.302 | 0.365 | 0.405 | 0.443 | 0.492 | 0.475
10 | EKVX | 0.176 | 0.323 | 0.347 | 0.369 | 0.334 | – | 0.621 | 0.744 | 0.67 | 0.841 | – | 0.363 | 0.434 | 0.39 | 0.351 | 0.239 | 0.218 | 0.24 | 0.231
11 | NCI-H1651 | 0.604 | 0.679 | 0.645 | 0.351 | 0.5 | 0.473 | 0.346 | 0.508 | 0.416 | 0.466 | 0.524 | 0.594 | 0.665 | 0.596 | 0.59 | 0.316 | 0.366 | 0.326 | 0.377
12 | LU99A | 0.288 | 0.274 | 0.262 | 0.259 | 0.272 | 0.336 | 0.324 | 0.435 | 0.479 | 0.324 | 0.206 | 0.189 | 0.179 | 0.189 | 0.183 | 0.856 | 0.883 | 0.822 | 0.847
13 | LC-2-ad | 0.373 | 0.436 | 0.451 | – | 0.451 | 0.75 | 0.835 | 0.91 | 0.883 | 0.835 | 0.275 | 0.285 | 0.268 | 0.269 | 0.233 | 0.528 | 0.616 | 0.581 | 0.535
14 | A-427 | – | 0.204 | 0.191 | 0.204 | 0.189 | 0.467 | 0.676 | 0.722 | 0.639 | 0.718 | 0.781 | 0.96 | 0.84 | 0.884 | 0.954 | 0.314 | 0.39 | 0.365 | 0.333
15 | LCLC-97TM1 | 0.183 | 0.218 | 0.172 | 0.248 | 0.207 | 0.197 | 0.334 | 0.325 | 0.179 | 0.361 | 0.178 | 0.177 | 0.195 | 0.184 | 0.191 | 0.387 | 0.432 | 0.407 | 0.447
16 | BEN | 0.48 | 0.504 | 0.562 | 0.54 | 0.39 | 0.66 | 0.766 | 0.563 | 0.582 | 0.676 | 0.739 | 0.959 | 0.681 | 0.659 | 0.78 | 0.28 | 0.258 | 0.227 | 0.266
17 | EMC-BAC-2 | 0.262 | 0.259 | 0.281 | – | 0.282 | 0.909 | 1.21 | 1.16 | – | 1.19 | 0.365 | 0.44 | 0.451 | – | 0.493 | 0.463 | 0.514 | 0.542 | 0.568
